“And” between values parts separate entries of the source, which are not always exact repeats. Equal entries are not always repeated. Toxic doses and inconclusive results are not listed. Rule for the calls: active = survival T/C of 150% or more; inactive = T/C below 125% in these data.
Test system: CD2F1 mice, L1210 leukemia ip, survival T/C
Assay: NCI In Vivo Anticancer Drug Screen. Data for tumor model L1210 Leukemia (intraperitoneal) in CD2F1 (CDF1) mice
Conditions: higher = longer survival
Method in brief: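 Activity against a transplanted murine tumor was judged by comparing the compound group with a vehicle group. The outcome in the treated animals was divided by that in the controls.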

[1] = endpoint: mean survival time, dose: 50.0 mg/kg/injection, schedule: Q01DX001 (ip), vehicle: saline with Tween-80
[2] = endpoint: mean survival time, dose: 100.0 mg/kg/injection, schedule: Q01DX001 (ip), vehicle: saline with Tween-80
[3] = endpoint: mean survival time, dose: 100.0 mg/kg/injection, schedule: Q04DX003 (ip), vehicle: saline with Tween-80
[4] = endpoint: mean survival time, dose: 200.0 mg/kg/injection, schedule: Q04DX003 (ip), vehicle: saline with Tween-80
[5] = endpoint: mean survival time, dose: 400.0 mg/kg/injection, schedule: Q04DX003 (ip), vehicle: saline with Tween-80
[6] = endpoint: mean survival time, dose: 12.5 mg/kg/injection, schedule: Q01DX009 (ip), vehicle: saline with Tween-80
[7] = endpoint: mean survival time, dose: 50.0 mg/kg/injection, schedule: Q01DX009 (ip), vehicle: saline with Tween-80

Measured: T/C

O=C1C=CC(=NS(=O)(=O)c2ccccc2)C=C1
inactive: endpoint: mean survival time, dose: 25.0 mg/kg/injection, schedule: Q01DX001 (ip), vehicle: other 93 % of control | endpoint: mean survival time, dose: 50.0 mg/kg/injection, schedule: Q01DX001 (ip), vehicle: other 95 % of control | endpoint: mean survival time, dose: 100.0 mg/kg/injection, schedule: Q01DX001 (ip), vehicle: other 104 % of control

Cc1cc(O)c2c(c1)C(=O)C=CC2=O
inactive: endpoint: mean survival time, dose: 0.12 mg/kg/injection, schedule: Q01DX009 (ip), vehicle: other 102 % of control | endpoint: mean survival time, dose: 0.25 mg/kg/injection, schedule: Q01DX009 (ip), vehicle: other 108 % of control | endpoint: mean survival time, dose: 0.5 mg/kg/injection, schedule: Q01DX009 (ip), vehicle: other 97 % of control | endpoint: mean survival time, dose: 1.0 mg/kg/injection, schedule: Q01DX009 (ip), vehicle: other 93 % of control | endpoint: mean survival time, dose: 2.0 mg/kg/injection, schedule: Q01DX009 (ip), vehicle: other 97 % of control

O=C(Nc1cc(Cl)ccc1C(=O)O)c1cccc(C[n+]2ccccc2)c1
inactive: endpoint: median survival time, dose: 50.0 mg/kg/injection, schedule: Q01DX005 (ip), vehicle: saline with Tween-80 105 % of control | endpoint: median survival time, dose: 100.0 mg/kg/injection, schedule: Q01DX005 (ip), vehicle: saline with Tween-80 98 % of control | endpoint: median survival time, dose: 200.0 mg/kg/injection, schedule: Q01DX005 (ip), vehicle: saline with Tween-80 95 % of control | endpoint: median survival time, dose: 400.0 mg/kg/injection, schedule: Q01DX005 (ip), vehicle: saline with Tween-80 91 % of control

CCCCCCP(C)(=O)CCCCCC
inactive: endpoint: mean survival time, dose: 25.0 mg/kg/injection, schedule: Q01DX001 (ip), vehicle: saline with Tween-80 96 % of control | [1] 97 % of control | [2] 100 % of control

CC(C(=O)O)=C(c1ccccc1)c1ccccc1
inactive: [3] 90 % of control | [4] 93 % of control | [5] 87 % of control

O=C1NC2C=CC3C=CC=CC2C13 (stereo not drawn)
inactive: endpoint: median survival time, dose: 25.0 mg/kg/injection, schedule: Q04DX002 (ip), vehicle: saline with Tween-80 100 % of control | endpoint: median survival time, dose: 50.0 mg/kg/injection, schedule: Q04DX002 (ip), vehicle: saline with Tween-80 100 % of control | endpoint: median survival time, dose: 100.0 mg/kg/injection, schedule: Q04DX002 (ip), vehicle: saline with Tween-80 100 % of control | endpoint: median survival time, dose: 200.0 mg/kg/injection, schedule: Q04DX002 (ip), vehicle: saline with Tween-80 100 % of control

CCN1/C(=C/c2ccc3ccccc3[n+]2CC)C=Cc2ccccc21
inactive: endpoint: mean survival time, dose: 0.25 mg/kg/injection, schedule: Q01DX001 (ip), vehicle: other 95 % of control | endpoint: mean survival time, dose: 0.5 mg/kg/injection, schedule: Q01DX001 (ip), vehicle: other 97 % of control | endpoint: mean survival time, dose: 1.0 mg/kg/injection, schedule: Q01DX001 (ip), vehicle: other 95 % of control

CN(C)CCN1C(=O)c2cccc3cc([N+](=O)[O-])cc(c23)C1=O
inactive: endpoint: mean survival time, dose: 0.75 mg/kg/injection, schedule: Q01DX009 (ip), vehicle: saline with Tween-80 100 % of control and 106 % of control | endpoint: mean survival time, dose: 1.5 mg/kg/injection, schedule: Q01DX009 (ip), vehicle: saline with Tween-80 115 % of control and 107 % of control | endpoint: mean survival time, dose: 1.5 mg/kg/injection, schedule: Q01DX009 (ip), vehicle: saline 102 % of control | endpoint: mean survival time, dose: 3.0 mg/kg/injection, schedule: Q01DX009 (ip), vehicle: saline with Tween-80 113 % of control | endpoint: mean survival time, dose: 3.0 mg/kg/injection, schedule: Q01DX009 (ip), vehicle: saline 107 % of control | endpoint: mean survival time, dose: 6.0 mg/kg/injection, schedule: Q01DX009 (ip), vehicle: saline 109 % of control | endpoint: mean survival time, dose: 12.0 mg/kg/injection, schedule: Q01DX009 (ip), vehicle: saline with Tween-80 120 % of control | endpoint: mean survival time, dose: 12.0 mg/kg/injection, schedule: Q01DX009 (ip), vehicle: saline 117 % of control | endpoint: median survival time, dose: 0.37 mg/kg/injection, schedule: Q01DX009 (ip), vehicle: saline with Tween-80 100 % of control | endpoint: median survival time, dose: 0.75 mg/kg/injection, schedule: Q01DX009 (ip), vehicle: saline with Tween-80 95 % of control and 105 % of control | endpoint: median survival time, dose: 1.5 mg/kg/injection, schedule: Q01DX009 (ip), vehicle: saline with Tween-80 116 % of control and 98 % of control | endpoint: median survival time, dose: 3.0 mg/kg/injection, schedule: Q01DX009 (ip), vehicle: saline with Tween-80 104 % of control and 110 % of control | endpoint: median survival time, dose: 6.0 mg/kg/injection, schedule: Q01DX009 (ip), vehicle: saline with Tween-80 122 % of control | endpoint: median survival time, dose: 12.0 mg/kg/injection, schedule: Q01DX009 (ip), vehicle: saline with Tween-80 122 % of control

CCOC(=O)N1CC2CCC(C1)N2C
inactive: endpoint: mean survival time, dose: 100.0 mg/kg/injection, schedule: Q04DX003 (ip), vehicle: saline 93 % of control

CC(C)(Cc1ccc([N+](=O)[O-])cc1)[N+](=O)[O-]
inactive: endpoint: mean survival time, dose: 75.0 mg/kg/injection, schedule: Q01DX001 (ip), vehicle: saline 98 % of control | endpoint: mean survival time, dose: 150.0 mg/kg/injection, schedule: Q01DX001 (ip), vehicle: saline 102 % of control

CC1CC(C)(C)NC(CC2CCCCC2O)O1 (stereo not drawn)
inactive: [3] 94 % of control

O=C(O)Cc1ccccc1C(=O)O
inactive: endpoint: mean survival time, dose: 100.0 mg/kg/injection, schedule: Q04DX003 (ip), vehicle: Klucel (hydroxypropylcellulose) (HPC) 96 % of control | endpoint: mean survival time, dose: 200.0 mg/kg/injection, schedule: Q04DX003 (ip), vehicle: Klucel (hydroxypropylcellulose) (HPC) 104 % of control | endpoint: mean survival time, dose: 400.0 mg/kg/injection, schedule: Q04DX003 (ip), vehicle: Klucel (hydroxypropylcellulose) (HPC) 96 % of control

CS(=O)(=O)c1cccnn1
inactive: endpoint: mean survival time, dose: 100.0 mg/kg/injection, schedule: Q04DX003 (ip), vehicle: saline sonified 93 % of control | endpoint: mean survival time, dose: 200.0 mg/kg/injection, schedule: Q04DX003 (ip), vehicle: saline sonified 98 % of control | endpoint: mean survival time, dose: 400.0 mg/kg/injection, schedule: Q04DX003 (ip), vehicle: saline sonified 96 % of control

COc1cccc2c1C(=O)C1=C(C2=O)c2c(O)cc(CO)cc2C(O)C1O (stereo not drawn)
inactive: endpoint: median survival time, dose: 3.12 mg/kg/injection, schedule: Q01DX005 (ip), vehicle: other 101 % of control | endpoint: median survival time, dose: 6.25 mg/kg/injection, schedule: Q01DX005 (ip), vehicle: other 105 % of control | endpoint: median survival time, dose: 12.5 mg/kg/injection, schedule: Q01DX005 (ip), vehicle: other 103 % of control | endpoint: median survival time, dose: 25.0 mg/kg/injection, schedule: Q01DX005 (ip), vehicle: other 109 % of control | endpoint: median survival time, dose: 50.0 mg/kg/injection, schedule: Q01DX005 (ip), vehicle: other 119 % of control

CC1(C)CC(=O)C2=C(C1)OC1(O)CC(C)(C)CC(=O)C1C2c1ccccc1[N+](=O)[O-] (stereo not drawn)
inactive: endpoint: mean survival time, dose: 3.13 mg/kg/injection, schedule: Q01DX001 (ip), vehicle: saline with Tween-80 103 % of control | endpoint: mean survival time, dose: 3.13 mg/kg/injection, schedule: Q01DX009 (ip), vehicle: saline with Tween-80 100 % of control | endpoint: mean survival time, dose: 6.25 mg/kg/injection, schedule: Q01DX001 (ip), vehicle: saline with Tween-80 90 % of control | endpoint: mean survival time, dose: 6.25 mg/kg/injection, schedule: Q01DX009 (ip), vehicle: saline with Tween-80 107 % of control | endpoint: mean survival time, dose: 12.5 mg/kg/injection, schedule: Q01DX001 (ip), vehicle: saline with Tween-80 97 % of control | [6] 97 % of control | [2] 87 % of control

CCOC(=O)C(C)C(O)c1ccc(OC)cc1 (stereo not drawn)
inactive: [6] 101 % of control | endpoint: mean survival time, dose: 25.0 mg/kg/injection, schedule: Q01DX009 (ip), vehicle: saline with Tween-80 101 % of control | [7] 93 % of control

COc1ccc(CCNC2c3ccccc3C=Cc3ccccc32)cc1OC
inactive: [1] 107 % of control | endpoint: mean survival time, dose: 100.0 mg/kg/injection, schedule: Q01DX001 (ip), vehicle: saline 91 % of control | endpoint: mean survival time, dose: 200.0 mg/kg/injection, schedule: Q01DX001 (ip), vehicle: saline 100 % of control

CC/C(=C\C=C\N(C)C)C(=O)OC
inactive: [7] 100 % of control | endpoint: mean survival time, dose: 100.0 mg/kg/injection, schedule: Q01DX009 (ip), vehicle: saline with Tween-80 100 % of control | endpoint: mean survival time, dose: 200.0 mg/kg/injection, schedule: Q01DX009 (ip), vehicle: saline with Tween-80 105 % of control

CCCCCCCCOc1ccc(/C=N\N=C\c2ccc(OCCCCCCCC)cc2)cc1
inactive: [3] 94 % of control | [4] 94 % of control | [5] 94 % of control

From PubChem BioAssay AID256 (DTP/NCI, 2004)
